Measured values as given in patent US12070489B2, “Method of treating cancer with a cancer therapy in combination with another therapeutic agent” (Rappaport Family Institute for Research in the Medical …, priority 2018, dated 2024).

Experiments:
[1] = tested on: IL-6; test: IL-6 quantification in plasma by ELISA after DOX; assay type: in vivo; conditions: naive female BALB/c mice, 240 μg DOX IP, one day after injection
Protocol: For determination of IL-6 expression following DOX treatment, 7 weeks old naïve female BALB/c mice (n=3) were IP injected with 240 μg DOX. Control mice (n=3) were left untreated. One day after the injection, mice were bled by cardiac puncture and blood was collected into EDTA-coated tubes. […] Supernatants (representing the plasma samples) were collected and the level of IL-6 in the plasma was determined by ELISA (IL-6 Quantikine ELISA Kit, R&D systems) according to the manufacturer's instruction.
To investigate the effect of chemotherapy on the level of IL-6 in the circulation, naïve 7-weeks old female BALB/c mice were IP injected with 240 μg DOX (doxorubicin, Adriamycin™) or were left untreated (control mice). One day after the injection, the level of IL-6 in the plasma was determined by ELISA.

[2] = tested on: circulating factors; test: Mouse L308 Array screen of plasma from naive mice treated with FOLFOX or Paclitaxel chemotherapy; assay type: in vivo; conditions: circulating level, BALB/c mice
Protocol: Determination of proteins expression using protein arrays was performed according to the manufacturer's instructions.
To identify host-derived circulating factors whose levels change in response to chemotherapy, a protein array-based screens were performed using plasma from naïve (non-tumor bearing) mice that were treated with different chemotherapy types. The use of naïve mice allows identification of factors specifically generated by the host in response to chemotherapy, independent of tumor presence. […] Control mice (n=5) were injected with vehicle control. Twenty-four hours after treatment administration, mice were sacrificed, plasma was isolated and pooled per group. […] These factors, and their respective fold changes in response to each chemotherapy type (Paclitaxel™, FOLFOX™), are listed in Table 5.

SMILES: COc1cccc2c1C(=O)c1c(O)c3c(c(O)c1C2=O)C[C@@](O)(C(=O)CO)C[C@@H]3O[C@H]1C[C@H](N)[C@H](O)[C@H](C)O1 [DOX, doxorubicin]
- increase of plasma level of IL-6 compared to control [1]: 22 fold

SMILES: CC(=O)O[C@H]1C(=O)[C@@]2(C)[C@H]([C@H](OC(=O)c3ccccc3)[C@]3(O)C[C@H](OC(=O)[C@H](O)[C@@H](NC(=O)c4ccccc4)c4ccccc4)C(C)=C1C3(C)C)[C@]1(OC(C)=O)CO[C@@H]1C[C@@H]2O [Paclitaxel, paclitaxel]
- Fold change CRG-2 (chemotherapy-treated vs control) [2]: >10 fold
- Fold change CRP (chemotherapy-treated vs control) [2]: >10 fold
- Fold change CXCL14/BRAK (chemotherapy-treated vs control) [2]: 2.6 fold
- Fold change CXCL16 (chemotherapy-treated vs control) [2]: 4.4 fold
- Fold change CXCR2/IL-8 RB (chemotherapy-treated vs control) [2]: 2.0 fold
- Fold change CXCR6 (chemotherapy-treated vs control) [2]: 3.6 fold
- Fold change Cardiotrophin-1 (chemotherapy-treated vs control) [2]: >10 fold
- Fold change Cripto (chemotherapy-treated vs control) [2]: >10 fold
- Fold change Dkk-3 (chemotherapy-treated vs control) [2]: >10 fold
- Fold change Endocan (chemotherapy-treated vs control) [2]: 4.4 fold
- Fold change Endostatin (chemotherapy-treated vs control) [2]: 4.9 fold
- Fold change Eotaxin-2 (chemotherapy-treated vs control) [2]: 3.4 fold
- Fold change Erythropoietin (EPO) (chemotherapy-treated vs control) [2]: 3.9 fold
- Fold change Frizzled-6 (chemotherapy-treated vs control) [2]: 2.2 fold
- Fold change Frizzled-7 (chemotherapy-treated vs control) [2]: 6.1 fold
- Fold change GITR (chemotherapy-treated vs control) [2]: >10 fold
- Fold change GM-CSF (chemotherapy-treated vs control) [2]: 2.4 fold
- Fold change IGFBP-1 (chemotherapy-treated vs control) [2]: >10 fold
- Fold change IL-1 R4/ST2 (chemotherapy-treated vs control) [2]: 1.9 fold
- Fold change IL-1 alpha (chemotherapy-treated vs control) [2]: >10 fold
- Fold change IL-3 R alpha (chemotherapy-treated vs control) [2]: >10 fold
- Fold change IL-7 R alpha (chemotherapy-treated vs control) [2]: 8.8 fold
- Fold change IL-9 R (chemotherapy-treated vs control) [2]: 5.7 fold
- Fold change IL-12 p70 (chemotherapy-treated vs control) [2]: >10 fold
- Fold change IL-15 (chemotherapy-treated vs control) [2]: 2.5 fold
- Fold change IL-15 R alpha (chemotherapy-treated vs control) [2]: 3.4 fold
- Fold change IL-17R (chemotherapy-treated vs control) [2]: 2.6 fold
- Fold change IL-18 R alpha/IL-1 R5 (chemotherapy-treated vs control) [2]: >10 fold
- Fold change IL-20 (chemotherapy-treated vs control) [2]: >10 fold
- Fold change IL-23 R (chemotherapy-treated vs control) [2]: 1.8 fold
- Fold change IL-27 (chemotherapy-treated vs control) [2]: 2.0 fold
- Fold change IL-28/IFN-lambda (chemotherapy-treated vs control) [2]: 5.4 fold
- Fold change IL-31 (chemotherapy-treated vs control) [2]: >10 fold
- Fold change LIF (chemotherapy-treated vs control) [2]: >10 fold
- Fold change LIX (chemotherapy-treated vs control) [2]: >10 fold
- Fold change LRP-6 (chemotherapy-treated vs control) [2]: >10 fold
- Fold change Lungkine (chemotherapy-treated vs control) [2]: 2.0 fold
- Fold change Lymphotoxin beta R/TNFRSF3 (chemotherapy-treated vs control) [2]: 1.6 fold
- Fold change M-CSF (chemotherapy-treated vs control) [2]: 1.8 fold
- Fold change MAdCAM-1 (chemotherapy-treated vs control) [2]: >10 fold
- Fold change MCP-1 (chemotherapy-treated vs control) [2]: >10 fold
- Fold change MIP-1 gamma (chemotherapy-treated vs control) [2]: >10 fold
- Fold change MIP-2 (chemotherapy-treated vs control) [2]: 3.1 fold
- Fold change MMP-9 (chemotherapy-treated vs control) [2]: 4.3 fold
- Fold change P-Selectin (chemotherapy-treated vs control) [2]: >10 fold
- Fold change PF-4 (chemotherapy-treated vs control) [2]: 3.6 fold
- Fold change Prolactin (chemotherapy-treated vs control) [2]: 4.1 fold
- Fold change SDF-1 (chemotherapy-treated vs control) [2]: >10 fold
- Fold change Soggy-1 (chemotherapy-treated vs control) [2]: 3.6 fold
- Fold change TACI/TNFRSF13B (chemotherapy-treated vs control) [2]: >10 fold
- Fold change TARC (chemotherapy-treated vs control) [2]: >10 fold
- Fold change TCA-3 (chemotherapy-treated vs control) [2]: 3.0 fold
- Fold change TGF-beta 2 (chemotherapy-treated vs control) [2]: 3.4 fold
- Fold change TGF-beta RII (chemotherapy-treated vs control) [2]: 2.2 fold
- Fold change TNF-alpha (chemotherapy-treated vs control) [2]: 2.8 fold
- Fold change TNF-beta/TNFSF1B (chemotherapy-treated vs control) [2]: 2.9 fold
- Fold change TPO (chemotherapy-treated vs control) [2]: >10 fold
- Fold change TWEAK R/TNFRSF12 (chemotherapy-treated vs control) [2]: >10 fold
- Fold change Thrombospondin (chemotherapy-treated vs control) [2]: >10 fold
- Fold change Thymus Chemokine-1 (chemotherapy-treated vs control) [2]: >10 fold
- Fold change VEGFC (chemotherapy-treated vs control) [2]: >10 fold
- Fold change WISP-1/CCN4 (chemotherapy-treated vs control) [2]: 3.7 fold
